Data from patent EP0414391B1, “Aminoketone derivatives and use thereof” (MITSUI TOATSU CHEMICALS, Inc., priority 1989, dated 1991).
Where a name gives a salt, the structure may show the parent alone. Read-outs that look alike come from different tables or passages of the source.

Legend:
[1] = system: Tonic extension of the hind limbs; assay: Antiepileptic action (pentetrazole-induced tonic extension of the hind limbs); type: in vivo, ddy Male mice; details: Mus musculus, ip, 0.5 h, read-out: Antiepileptic action ED₅₀
Description: ddy Male mice (body weights: 25-30 g) were used. Test compounds were intraperitoneally administered. Thirty minutes later, pentetrazole (PTZ) was intraperitoneally administered at 170 mg/kg.
Tonic extension of the hind limbs was observed. [formula]
Effective dose for 50% of antiepileptic action, ED₅₀ (mg/kg) was calculated.

[2] = system: decerebrate rigidity induced by radio frequency lesions of rat brains; assay: Decerebrate rigidity remission action (radio frequency lesion, method of Ono et al); type: in vivo, Wistar male rat; details: iv, intravenously administered at 3 mg/kg, tension before the administration = 100%
Description: Using the method proposed by Ono et al [H. Ono et al, Gen. Pharmacol., 18, 57 (1987)], rigidity remission action of the aminoketone derivatives of the invention for the decerebrate rigidity induced by radio frequency lesions of rat brains was investigated.
Each Wistar male rat (body weight: 300-400 g) was anesthetized with ether and then fixed on a stereotaxic apparatus. In accordance with the Pellegrino's stereo-taxic brain atlas, the electrodes of a lesion generator (manufactured by Radionics Company) were punctuated to AP: 0, L:±1.5, V:-3. […] The rigidified rat was fixed in the abdominal position and one of the hind legs was pushed 4-5 mm toward the head repeatedly once a minute. The tension of each extension reflex of the extensor of the hind limbs was recorded. Assuming that the tension before the administration be 100%, the rate of rigidity inhibition as expressed in terms of percentage: [formula]
(§1) The test compounds were intravenously administered at 3 mg/kg.

[3] = Acute toxicity; details: mouse, in vivo, ip; intraperitoneally administered; alive or dead observed one day later; read-out: LD₅₀
Description: ddy Male mice (body weights: 25-30 g) were used. Each test compound was intraperitoneally administered. One day later, the mice were observed whether they were alive or dead.
50% lethal doses, LD₅₀ (mg/kg) were calculated.

[4] = Central depressant action (spontaneous behavior, revolutionary wheel); design: species or system ddy Male mice; details: mouse, in vivo, ip; intraperitoneal administration; dose reducing the number of wheel revolutions in 20 minutes by 50%; read-out: Central depressant action ED₅₀
Description: Depressant action against spontaneous behavior using a revolutionary wheel was used as an index for central depressant action.
ddy Male mice (body weights: 25-30 g) were used. After intraperitoneal administration of each test compound, the mouse was immediately placed in a revolutionary wheel. The total number of revolutions of the wheel during a 20 minute period immediately after the placement of the mouse inside the wheel was counted.
Doses required to reduce the number of revolutions by 50%, ED₅₀ (mg/kg) were determined.

[5] = system: flexor reflex of the right anterior tibialis; assay: Depressing action for the spinal reflex of cat (flexor reflex); type: in vivo, cats; details: Felis catus, iv, read-out: Reflex inhibition, %
Description: Both male and female cats having a body weight of 2.5-4.0 kg were anesthetized with ether and then fixed in the supine position. In accordance with the method proposed by Shimamoto et al ["Yakurigaku Jisshu (Pharmacological Practice)", Nanzando Co., Ltd. (1960)], profound peroneal nerve-anterior peroneal nerve samples were prepared for the testing of flexor reflex. The flexor reflex of the right anterior tibialis was elicited by electrical stimulation (0.2 Hz, 1 ms, supra maximal voltage) of the central end of the ipsilateral femoral nerve. Under a static tension of 25 g, contractions of the corresponding anterior peroneal nerve were recorded on a polygraph. Assuming that the contraction force before the administration be 100%, the rate of flexor reflex inhibition was expressed in terms of percentage: [formula]
as §1

[6] = system: contraction of the bladder caused by a micturition reflex; assay: Micturition reflex depression action (bladder balloon, internal pressure); type: in vivo, Wistar male rats; details: injected through the common carotid vein, urethane-anesthetized rats, Mean ± S.E., 3 rats
Text: Wistar male rats having a body weight of 300 g were each anesthetized s.c. with 1.5 g/kg of urethane and fixed in the supine position. The hypogastrium was next subjected to median incision so that the bladder was exposed. A short cut was formed in a top part of the bladder, through which a balloon having an internal volume of about 1 mℓ was inserted. A catheter equipped with a three-way cock was connected to the balloon. A syringe was connected to another flow passage of the three-way cock, while a transducer ("Statham P-50", trade name) was connected to the remaining flow passage to permit the measurement of the internal pressure of the bladder.
After the rat was left over for at least 30 minutes after the operation, 0.25-0.5 mℓ of distilled water was injected into the balloon by means of the syringe. Variations in the internal pressure of the bladder, which were developed at that time due to spontaneous movement of the bladder, were recorded on a polygraph ("RM-6000", trade name; manufactured by Nihon Koden K.K.) by way of the transducer.
Each test compound was dissolved in physiological saline and injected through the common carotid vein. Effects of each test compound was expressed in terms of the time required until the disappearance of a contraction of the bladder caused by a micturition reflex.

[7] = intraperitoneally administered 30 minutes before pentetrazole (PTZ) 170 mg/kg i.p.
[8] = intravenously administered at 3 mg/kg, contraction force before the administration = 100%

SMILES	ED50 [1, 7] [mg/kg]	inhibition in vivo at 3 mg/kg [2] [%]	LD50 at 24 h [3] [mg/kg]	ED50 at 20 min [4] [mg/kg]	inhibition in vivo at 3 mg/kg [5, 8] [%]	also measured
CC(CN1CCCCC1)C(=O)c1cc(-c2ccccc2)no1.Cl (centres unmarked) [Example 1, 5-(2-methyl-3-piperidinopropionyl)-3-phenylisoxazole Hydrochloride]	17	40	170 to 300	54	–	–
CC(CN1CCCC1)C(=O)c1snc2ccccc12 (centres unmarked) [Example 61]	11	–	–	37	85	–
CC(C)C(CN1CCCC1)C(=O)c1cc(-c2ccccc2)no1 (centres unmarked) [Example 46, 3-Phenyl-5-{2-(1-pyrrolidinylmethyl)-3-methylbutyryl}-isoxazole hydrochloride]	–	51	–	–	66	–
CCC(CN1CCCC1)C(=O)c1cc(-c2ccccc2)on1 (centres unmarked) [Example 52]	–	61	–	–	–	–
CCC(CN1CCCCC1)C(=O)c1cc(-c2ccccc2)no1 (centres unmarked) [Example 29]	3	53	300 to 500	38	70	Time required until disappearance ([6]; Dose 2 mg/kg): 4.9 ± 1.2 min; Time required until disappearance ([6]; Dose 4 mg/kg): 8.6 ± 2.1 min
COc1cccc(-c2cc(C(=O)C(C)CN3CCCC3)on2)c1 (centres unmarked) [Example 8]	–	38	–	–	–	–
CCC(CN1CCCC1)C(=O)c1cc(-c2ccc(C)o2)no1 (centres unmarked) [Example 38]	–	–	–	–	38	–
CCc1ccc(C(=O)C(C)CN2CCCCC2)cc1 (centres unmarked) [Eperisone hydrochloride, eperisone hydrochloride, reference compound]	30	52	100 to 170	33	50	Time required until disappearance ([6]; Dose 2 mg/kg): 2.4 ± 1.2 min; Time required until disappearance ([6]; Dose 4 mg/kg): 5.8 ± 2.1 min
CC(CN1CCCCC1)C(=O)c1cc(Cc2ccccc2)no1.Cl (centres unmarked) [Example 21, 3-Benzyl-5-(2-methyl-3-piperidinopropionyl)isoxazole hydrochloride]	–	44	–	52	–	–
CCC(CN1CCCC1)C(=O)c1cc(-c2ccccc2)no1 (centres unmarked) [Example 28, 3-Phenyl-5-{2-(1-pyrrolidinylmethyl)butyryl} isoxazole hydrochloride]	5	62	100 to 170	44	79	Time required until disappearance ([6]; Dose 2 mg/kg): 5.6 ± 1.2 min; Time required until disappearance ([6]; Dose 4 mg/kg): 10.1 ± 2.1 min
Cc1onc(-c2ccccc2)c1C(=O)C(C)CN1CCCCC1.Cl (centres unmarked) [Example 68, 3-Phenyl-5-methyl-4-(2-methyl-3-piperidinopropionyl)isoxazole hydrochloride]	17	–	–	–	56	–
CCC(CN1CCCC1)C(=O)c1noc2ccccc12 (centres unmarked) [Example 58, 3-{2-(1-pyrrolidinylmethyl)butyryl} -1,2-benzisoxazole hydrochloride]	–	–	–	–	–	inhibition in vivo at 3 mg/kg [5]: 45%
Cc1ccc(-c2cc(C(=O)C(C)CN3CCCC3)on2)o1 (centres unmarked) [Example 20, hydrochloride]	–	49	170 to 300	49	54	–
CCC(CN1CCCC1)C(=O)c1snc2ccccc12 (centres unmarked) [Example 62]	–	–	–	50	–	ED50 [1]: 23 mg/kg; inhibition in vivo at 3 mg/kg [5]: 90%
CC(CN1CCCCC1)C(=O)c1cc(C(=O)c2ccccc2)no1.Cl (centres unmarked) [Example 22, 3-benzoyl-5-(2-methyl-3-piperidinopropionyl)isoxazole hydrochloride]	18	41	–	43	–	–
CCCC(CN1CCCC1)C(=O)c1cc(-c2ccccc2)no1 (centres unmarked) [Example 47]	–	–	–	–	–	inhibition in vivo at 3 mg/kg [5]: 45%
CC(CN1CCCC1)C(=O)c1cc(-c2ccccc2)no1 (centres unmarked) [Example 5]	20	40	100 to 170	44	–	–
